pIC50: −log10 of the molar value.
These molecules were tested against T1, human acetyl-CoA carboxylase 2 (ACC2) (Homo sapiens, UniProt O00763) (assay: Acetyl-CoA carboxylase enzyme assay (malonyl-CoA formation by LC/MS/MS)). Details: recombinant human ACC2 (aa 144-2458); read-out: IC50 ACC2.
T1 construct: The cDNA encoding amino acids 144 to 2458 of human acetyl-CoA carboxylase 2; made in house; host or cells: Sf9 insect cells (baculovirus, pFastBac1)
Format: biochemical
Procedure, shortened: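 Malonyl-CoA formation was read by LC/MS/MS MRM against a [13C3]-malonyl-CoA internal standard, after acetic acid quench. The enzyme was baculovirus/Sf9-expressed human ACC2 residues 144–2458, given 15 minutes room-temperature compound preincubation in HEPES pH 7.5 buffer with MgCl2, citrate and DTT. Substrate solution held 50 μM acetyl-CoA, 120 μM ATP and 2 mM KHCO3.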

T1 sequence (O00763 144-2458): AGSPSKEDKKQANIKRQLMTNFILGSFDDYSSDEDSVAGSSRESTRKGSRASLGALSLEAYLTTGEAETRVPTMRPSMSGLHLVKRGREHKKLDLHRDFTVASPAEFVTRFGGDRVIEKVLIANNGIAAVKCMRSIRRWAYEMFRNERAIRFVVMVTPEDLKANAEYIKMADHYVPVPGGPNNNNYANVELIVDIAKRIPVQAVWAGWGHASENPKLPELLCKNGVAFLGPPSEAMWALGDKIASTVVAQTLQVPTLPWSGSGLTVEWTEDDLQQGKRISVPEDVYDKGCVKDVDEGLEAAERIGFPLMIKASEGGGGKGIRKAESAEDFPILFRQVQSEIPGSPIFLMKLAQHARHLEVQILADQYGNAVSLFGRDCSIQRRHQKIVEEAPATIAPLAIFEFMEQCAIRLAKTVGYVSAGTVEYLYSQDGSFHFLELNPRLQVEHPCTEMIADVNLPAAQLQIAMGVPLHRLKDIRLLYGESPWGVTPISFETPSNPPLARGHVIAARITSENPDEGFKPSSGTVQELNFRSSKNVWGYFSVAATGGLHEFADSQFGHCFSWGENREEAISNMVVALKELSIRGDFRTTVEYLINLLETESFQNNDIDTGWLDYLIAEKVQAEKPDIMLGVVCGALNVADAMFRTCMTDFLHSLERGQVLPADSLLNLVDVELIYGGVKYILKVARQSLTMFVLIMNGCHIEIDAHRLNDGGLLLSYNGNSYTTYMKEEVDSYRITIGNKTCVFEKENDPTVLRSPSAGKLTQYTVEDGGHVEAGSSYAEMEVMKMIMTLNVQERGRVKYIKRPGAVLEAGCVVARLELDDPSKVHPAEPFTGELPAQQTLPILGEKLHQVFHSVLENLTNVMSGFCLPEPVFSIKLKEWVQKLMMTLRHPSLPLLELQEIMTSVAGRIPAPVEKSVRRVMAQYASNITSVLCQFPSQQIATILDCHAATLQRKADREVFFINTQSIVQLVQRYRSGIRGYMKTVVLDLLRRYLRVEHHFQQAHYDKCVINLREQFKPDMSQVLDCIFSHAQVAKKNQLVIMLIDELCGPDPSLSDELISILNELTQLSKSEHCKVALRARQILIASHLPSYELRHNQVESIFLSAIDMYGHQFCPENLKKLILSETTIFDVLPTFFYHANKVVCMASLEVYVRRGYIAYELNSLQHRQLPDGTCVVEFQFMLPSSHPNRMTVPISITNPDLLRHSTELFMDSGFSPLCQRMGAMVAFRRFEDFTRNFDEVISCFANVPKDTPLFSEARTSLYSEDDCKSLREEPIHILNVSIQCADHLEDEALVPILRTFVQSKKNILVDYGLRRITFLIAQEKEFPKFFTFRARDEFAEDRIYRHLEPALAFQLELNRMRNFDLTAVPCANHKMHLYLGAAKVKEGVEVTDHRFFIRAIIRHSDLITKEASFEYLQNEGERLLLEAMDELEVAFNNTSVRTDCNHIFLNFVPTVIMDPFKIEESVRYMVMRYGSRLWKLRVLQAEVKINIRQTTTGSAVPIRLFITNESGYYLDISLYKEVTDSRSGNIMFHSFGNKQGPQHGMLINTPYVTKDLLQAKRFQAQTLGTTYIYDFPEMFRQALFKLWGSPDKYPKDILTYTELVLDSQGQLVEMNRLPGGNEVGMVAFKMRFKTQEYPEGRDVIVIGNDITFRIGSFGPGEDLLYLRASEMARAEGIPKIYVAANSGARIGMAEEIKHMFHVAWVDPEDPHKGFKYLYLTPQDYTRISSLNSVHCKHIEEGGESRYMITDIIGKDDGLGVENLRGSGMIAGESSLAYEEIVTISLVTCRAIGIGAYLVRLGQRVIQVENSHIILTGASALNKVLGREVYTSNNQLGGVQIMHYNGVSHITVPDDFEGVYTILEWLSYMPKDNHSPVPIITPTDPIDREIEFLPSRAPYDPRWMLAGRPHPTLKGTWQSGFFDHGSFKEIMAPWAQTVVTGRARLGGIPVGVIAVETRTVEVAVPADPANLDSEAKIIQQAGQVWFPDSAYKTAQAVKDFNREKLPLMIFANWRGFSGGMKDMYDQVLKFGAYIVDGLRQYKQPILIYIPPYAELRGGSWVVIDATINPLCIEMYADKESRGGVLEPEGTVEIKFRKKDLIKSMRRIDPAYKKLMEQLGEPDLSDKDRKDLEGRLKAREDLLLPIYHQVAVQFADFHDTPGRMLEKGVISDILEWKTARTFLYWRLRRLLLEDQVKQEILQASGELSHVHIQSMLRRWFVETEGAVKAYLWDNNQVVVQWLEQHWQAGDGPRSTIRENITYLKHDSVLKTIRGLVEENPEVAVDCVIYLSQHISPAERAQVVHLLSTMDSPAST

| pIC50 | Structure (SMILES) |
| --- | --- |
| 6.06 | CC(C)CCC(=O)N1CCNc2ncc(S(=O)(=O)N[C@H]3CC[C@H](C(=O)N[C@H](C)c4ccc(F)cc4)CC3)cc21 [Example 220, (1r,4R)-N-((R)-1-(4-fluorophenyl)ethyl)-4-(1-(4-methylpentanoyl)-1,2,3,4-tetrahydropyrido[3,2-b]pyrazine-7-sulfonamido)cyclohexanecarboxamide] |
| > 8.00 | COC(=O)N1CCNc2ccc(S(=O)(=O)NC3CCC(C(=O)NC(C)c4ccc(F)cc4)CC3)cc21 [Example 221, methyl 7-(N-((1R,4r)-4-((R)-1-(4-fluorophenyl)ethylcarbamoyl)cyclohexyl)sulfamoyl)-3,4-dihydroquinoxaline-1(2H)-carboxylate] |
| 7.40 | COC(=O)N1CCNc2ncc(S(=O)(=O)N[C@H]3CC[C@H](C(=O)N[C@H](C)c4ccc(F)cc4)CC3)cc21 [Example 222, methyl 7-(N-((1R,4r)-4-((R)-1-(4-fluorophenyl)ethylcarbamoyl)cyclohexyl)sulfamoyl)-3,4-dihydropyrido[3,2-b]pyrazine-1(2H)-carboxylate] |
| 6.69 | C[C@@H](NC(=O)[C@H]1CC[C@H](NS(=O)(=O)c2ccc3c(c2)C(=O)NCC3)CC1)c1ccc(F)cc1 [Example 223, (1r,4R)-N-((R)-1-(4-fluorophenyl)ethyl)-4-(1-oxo-1,2,3,4-tetrahydroisoquinoline-7-sulfonamido)cyclohexanecarboxamide] |
| 7.22 | COC(=O)C1CCc2ccc(S(=O)(=O)N[C@H]3CC[C@H](C(=O)N[C@H](C)c4ccc(F)cc4)CC3)cc2N1C (stereo partly drawn) [Example 224, methyl 7-(N-((1R,4r)-4-((R)-1-(4-fluorophenyl)ethylcarbamoyl)cyclohexyl)sulfamoyl)-1-methyl-1,2,3,4-tetrahydroquinoline-2-carboxylate] |
| 7.07 | C[C@@H](NC(=O)[C@H]1CC[C@H](NS(=O)(=O)c2ccc3c(c2)N(C)C(C(=O)O)CC3)CC1)c1ccc(F)cc1 (stereo partly drawn) [Example 225, 7-(N-((1R,4r)-4-((R)-1-(4-fluorophenyl)ethylcarbamoyl)cyclohexyl)sulfamoyl)-1-methyl-1,2,3,4-tetrahydroquinoline-2-carboxylic acid] |
| 8.00 | C[C@@H](NC(=O)[C@H]1CC[C@H](NS(=O)(=O)c2ccc3c(c2)Cc2ccccc2-3)CC1)c1ccc(F)cc1 [Example 226, (1r,4R)-4-(9H-fluorene-2-sulfonamido)-N-((R)-1-(4-fluorophenyl)ethyl)cyclohexanecarboxamide] |
| 7.82 | Cc1cc(-c2ccc3cc(S(=O)(=O)N[C@H]4CC[C@H](C(=O)N[C@H](C)c5ccc(F)cc5)CC4)ccc3n2)cc(C)n1 [Example 227, (1r,4R)-4-(2-(2,6-dimethylpyridin-4-yl)quinoline-6-sulfonamido)-N-((R)-1-(4-fluorophenyl)ethyl)cyclohexanecarboxamide] |
| 6.67 | CCOc1ccc2cc(S(=O)(=O)N[C@H]3CC[C@H](C(=O)N[C@H](CC(=O)O)c4ccccc4)CC3)ccc2n1 [Example 228, (R)-3-((1r,4R)-4-(2-ethoxyquinoline-6-sulfonamido)cyclohexanecarboxamido)-3-phenylpropanoic acid] |
| 7.70 | Cc1cc(-c2ccc3cc(S(=O)(=O)N[C@H]4CC[C@H](C(=O)N[C@H](C)c5ccc(F)cc5)CC4)ccc3n2)ccn1 [Example 229, (1r,4R)-N-((R)-1-(4-fluorophenyl)ethyl)-4-(2-(2-methylpyridin-4-yl)quinoline-6-sulfonamido)cyclohexanecarboxamide] |
| 7.22 | C[C@@H](NC(=O)[C@H]1CC[C@H](NS(=O)(=O)c2ccc3nc(-c4ccccn4)ccc3c2)CC1)c1ccc(F)cc1 [Example 230, (1r,4R)-N-((R)-1-(4-fluorophenyl)ethyl)-4-(2-(pyridin-2-yl)quinoline-6-sulfonamido)cyclohexanecarboxamide] |
| 8.00 | CCOc1ccc2cc(S(=O)(=O)N[C@H]3CC[C@](C)(C(=O)N[C@H](C)c4ccc(F)cc4)CC3)ccc2n1 [Example 231, (1r,4R)-4-(2-ethoxyquinoline-6-sulfonamido)-N-((R)-1-(4-fluorophenyl)ethyl)-1-methylcyclohexanecarboxamide] |
| 6.12 | C[C@@H](NC(=O)[C@H]1CC[C@H](NS(=O)(=O)c2ccc3nc(N4CCN(C(=O)OC(C)(C)C)CC4)ccc3c2)CC1)c1ccc(F)cc1 [Example 232, tert-butyl 4-(6-(N-((1R,4r)-4-((R)-1-(4-fluorophenyl)ethylcarbamoyl)cyclohexyl)sulfamoyl)quinolin-2-yl)piperazine-1-carboxylate] |
| 6.02 | C[C@@H](NC(=O)[C@H]1CC[C@H](NS(=O)(=O)c2cnc3c(c2)N(C(=O)COCc2ccccc2)CCN3)CC1)c1ccc(F)cc1 [Example 233, (1r,4R)-4-(1-(2-(benzyloxy)acetyl)-1,2,3,4-tetrahydropyrido[3,2-b]pyrazine-7-sulfonamido)-N-((R)-1-(4-fluorophenyl)ethyl)cyclohexanecarboxamide] |
| 7.70 | CCOc1ccc2cc(S(=O)(=O)N[C@H]3CC[C@H](C(=O)N4CCNC[C@@H]4c4ccccc4)CC3)ccc2n1 [Example 234, 2-ethoxy-N-((1S,4r)-4-((S)-2-phenylpiperazine-1-carbonyl)cyclohexyl)quinoline-6-sulfonamide] |
| 7.02 | CCOc1ccc2cc(S(=O)(=O)N[C@H]3CC[C@H](C(=O)N4CCN(C(=O)OC(C)(C)C)C[C@@H]4C(=O)OC)CC3)ccc2n1 [Example 235, (R)-1-tert-butyl 3-methyl 4-((1r,4R)-4-(2-ethoxyquinoline-6-sulfonamido)cyclohexanecarbonyl)piperazine-1,3-dicarboxylate] |
| 6.41 | CCOc1ccc2cc(S(=O)(=O)N[C@H]3CC[C@H](C(=O)N4CCNC[C@@H]4C(=O)OC)CC3)ccc2n1 [Example 236, (R)-methyl 1-((1r,4R)-4-(2-ethoxyquinoline-6-sulfonamido)cyclohexanecarbonyl)piperazine-2-carboxylate] |
| 7.07 | C[C@@H](NC(=O)[C@H]1CC[C@H](NS(=O)(=O)c2ccc3nc(N4CCNC5(CC5)C4)ccc3c2)CC1)c1ccc(F)cc1 [Example 237, (1r,4R)-4-(2-(4,7-diazaspiro[2.5]octan-7-yl)quinoline-6-sulfonamido)-N-((R)-1-(4-fluorophenyl)ethyl)cyclohexanecarboxamide] |
| 7.19 | C[C@@H](NC(=O)[C@H]1CC[C@H](NS(=O)(=O)c2ccc3nc(N4CCNCC4)ccc3c2)CC1)c1ccc(F)cc1 [Example 238, (1r,4R)-N-((R)-1-(4-fluorophenyl)ethyl)-4-(2-(piperazin-1-yl)quinoline-6-sulfonamido)cyclohexanecarboxamide] |
| 6.89 | CCNC(=O)N1CCNc2ccc(S(=O)(=O)N[C@H]3CC[C@H](C(=O)N[C@H](C)c4ccc(F)cc4)CC3)cc21 [Example 239, N-ethyl-7-(N-((1R,4r)-4-((R)-1-(4-fluorophenyl)ethylcarbamoyl)cyclohexyl)sulfamoyl)-3,4-dihydroquinoxaline-1(2H)-carboxamide] |
| > 8.00 | CC(C)(C)OC(=O)N1CCN(C(=O)[C@H]2CC[C@H](NS(=O)(=O)c3ccc4c(c3)Cc3ccccc3-4)CC2)[C@@H](c2ccccc2)C1 [Example 240, (S)-tert-butyl 4-((1r,4S)-4-(9H-fluorene-2-sulfonamido)cyclohexanecarbonyl)-3-phenylpiperazine-1-carboxylate] |
| 7.60 | CC(C)(C)OC(=O)N1CCN(C(=O)[C@H]2CC[C@H](NS(=O)(=O)c3ccc4c(c3)CCC4)CC2)[C@@H](c2ccccc2)C1 [Example 241, (S)-tert-butyl 4-((1r,4S)-4-(2,3-dihydro-1H-indene-5-sulfonamido)cyclohexanecarbonyl)-3-phenylpiperazine-1-carboxylate] |
| 6.71 | COC(=O)C1CN(c2ccc3cc(S(=O)(=O)N[C@H]4CC[C@H](C(=O)N[C@H](C)c5ccc(F)cc5)CC4)ccc3n2)CCN1 (stereo partly drawn) [Example 242, methyl 4-(6-(N-((1R,4r)-4-((R)-1-(4-fluorophenyl)ethylcarbamoyl)cyclohexyl)sulfamoyl)quinolin-2-yl)piperazine-2-carboxylate] |
| 7.82 | C[C@@H](NC(=O)[C@H]1CC[C@H](NS(=O)(=O)c2ccc3oc4ccccc4c3c2)CC1)c1ccc(F)cc1 [Example 243, (1r,4R)-4-(dibenzo[b,d]furan-2-sulfonamido)-N-((R)-1-(4-fluorophenyl)ethyl)cyclohexanecarboxamide] |
| > 8.00 | O=C([C@H]1CC[C@H](NS(=O)(=O)c2ccc3c(c2)Cc2ccccc2-3)CC1)N1CCNC[C@@H]1c1ccccc1 [Example 244, N-((1S,4r)-4-((S)-2-phenylpiperazine-1-carbonyl)cyclohexyl)-9H-fluorene-2-sulfonamide] |
| 7.46 | O=C([C@H]1CC[C@H](NS(=O)(=O)c2ccc3c(c2)CCC3)CC1)N1CCNC[C@@H]1c1ccccc1 [Example 245, N-((1S,4r)-4-((S)-2-phenylpiperazine-1-carbonyl)cyclohexyl)-2,3-dihydro-1H-indene-5-sulfonamide] |
| < 4.46 | CCOc1ccc2cc(S(=O)(=O)N[C@H]3CC[C@H](C(=O)N4CCNC[C@@H]4C(=O)O)CC3)ccc2n1 [Example 246, (R)-1-((1r,4R)-4-(2-ethoxyquinoline-6-sulfonamido)cyclohexanecarbonyl)piperazine-2-carboxylic acid] |
| 7.52 | C[C@@H](NC(=O)[C@H]1CC[C@H](NS(=O)(=O)c2ccc3nc(C#CCN4CCNCC4)ccc3c2)CC1)c1ccc(F)cc1 [Example 247, (1r,4R)-N-((R)-1-(4-fluorophenyl)ethyl)-4-(2-(3-(piperazin-1-yl)prop-1-ynyl)quinoline-6-sulfonamido)cyclohexanecarboxamide] |
